Reference: patent US11787796B2, “Plasma Kallikrein inhibitors and uses thereof” (Takeda Pharmaceutical Company Limited, priority 2019, dated 2023)

Molecular target: human activated kallikrein enzyme (Homo sapiens (Human), UniProt P03952)
Assay: Plasma kallikrein inhibition assay with fluorogenic peptide substrate, 500 pM activated kallikrein format
Assay type: biochemical
Conditions: 500 pM activated kallikrein; 300 uM Pro-Phe-Arg-7-amido-4-methylcoumarin substrate; 30 min preincubation, 10 min reaction at RT; read-out: Primary Dose Response Assay: Average EC50
Method: Example compounds were evaluated for inhibition of the human activated kallikrein enzyme in two formats of an assay employing a fluorogenic peptide substrate. In one assay format, the concentrations of reagents were as follows: 20 mM Tris pH 7.5, 1 mM EDTA, 150 mM sodium chloride, 0.1% PEG-400, 0.1% Triton X-100, […], 300 uM Pro-Phe-Arg-7-amido-4-methylcoumarin substrate. Prior to reaction initiation with substrate, enzyme and inhibitors were preincubated for 30 min at RT. After initiation with substrate, reactions were incubated for 10 min at RT and fluorescence emission at 460 nm from 380 nm excitation measured with a microplate reader. In another assay format, the concentrations of reagents were as follows: 20 mM Tris pH 7.5, 1 mM EDTA, 150 mM sodium chloride, 0.1% PEG-400, 0.1% Triton X-100, 5 pM activated kallikrein enzyme, 300 uM Pro-Phe-Arg-7-amido-4-methylcoumarin substrate. Prior to reaction initiation with substrate, enzyme and inhibitors were preincubated for 30 min at RT. After initiation with substrate, reactions were incubated for 18 h at RT and fluorescence emission at 460 nm from 380 nm excitation measured with a microplate reader.
Table II provides the results of the assay in the format with 500 pM activated kallikrein assay.
Table III provides comparative plasma kallikrein inhibition potency in the assay format with 500 pM activated kallikrein assay (described in detail in the preceding example).

human activated kallikrein enzyme, sequence (P03952 391-638): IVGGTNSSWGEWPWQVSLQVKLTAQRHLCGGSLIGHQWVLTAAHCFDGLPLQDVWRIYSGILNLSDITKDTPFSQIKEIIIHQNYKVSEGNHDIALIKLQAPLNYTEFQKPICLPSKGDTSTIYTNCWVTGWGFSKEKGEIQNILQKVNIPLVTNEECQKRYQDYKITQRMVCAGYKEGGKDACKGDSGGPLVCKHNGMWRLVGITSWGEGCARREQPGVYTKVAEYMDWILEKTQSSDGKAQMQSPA
human activated kallikrein enzyme, sequence (P03952 20-390 partner): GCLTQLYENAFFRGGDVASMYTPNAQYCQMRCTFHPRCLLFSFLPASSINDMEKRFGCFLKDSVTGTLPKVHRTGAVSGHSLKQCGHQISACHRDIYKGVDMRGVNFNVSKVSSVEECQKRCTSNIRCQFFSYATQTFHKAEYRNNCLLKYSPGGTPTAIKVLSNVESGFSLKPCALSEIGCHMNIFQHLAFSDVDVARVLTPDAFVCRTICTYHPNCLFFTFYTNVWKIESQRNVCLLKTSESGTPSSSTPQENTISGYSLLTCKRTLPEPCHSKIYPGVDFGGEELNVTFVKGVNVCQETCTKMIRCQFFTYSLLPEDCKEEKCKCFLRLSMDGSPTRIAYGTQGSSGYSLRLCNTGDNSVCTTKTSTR

EC50 [nM] | SMILES
≤ 1 | CCOC(=O)c1cc(C2CC2)cn2cc(Cn3cc(C(=O)NCc4c(C)cc(C(=N)N)cc4C)nn3)nc12 [Example I-112, ethyl 2-((4-((4-carbamimidoyl-2,6-dimethylbenzyl)carbamoyl)-1H-1,2,3-triazol-1-yl)methyl)-6-cyclopropylimidazo[1,2-a]pyridine-8-carboxylate]
100 to 2000 | O=C(NCc1c(-n2cnnn2)ccc(OC(F)(F)F)c1F)c1cn(Cc2cn3cc(C4CC4)ccc3n2)nn1 [Example I-98, 1-((6-cyclopropylimidazo[1,2-a]pyridin-2-yl)methyl)-N-(2-fluoro-6-(1H-tetrazol-1-yl)-3-(trifluoromethoxy)benzyl)-1H-1,2,3-triazole-4-carboxamide]
≤ 1 | COc1ccc(-n2cnnn2)c(CNC(=O)c2cn(Cc3cn4cc(C5CC5)cc(CC(C)(C)C(=O)O)c4n3)nn2)c1F [Example I-81, 3-(6-cyclopropyl-2-((4-((2-fluoro-3-methoxy-6-(1H-tetrazol-1-yl)benzyl)carbamoyl)-1H-1,2,3-triazol-1-yl)methyl)imidazo[1,2-a]pyridin-8-yl)-2,2-dimethylpropanoic acid]
10 to 100 | COc1ccc(-c2nnco2)c(CNC(=O)c2cn(Cc3cn4cc(C5CC5)ccc4n3)nn2)c1F [Example I-97, 1-((6-cyclopropylimidazo[1,2-a]pyridin-2-yl)methyl)-N-(2-fluoro-3-methoxy-6-(1,3,4-oxadiazol-2-yl)benzyl)-1H-1,2,3-triazole-4-carboxamide]
10 to 100 | O=C(NCc1ccc2[nH]cc(Cl)c2c1)c1cn(Cc2cn3cc(C4CC4)ccc3n2)nn1 [Example I-65, N-((3-chloro-1H-indol-5-yl)methyl)-1-((6-cyclopropylimidazo[1,2-a]pyridin-2-yl)methyl)-1H-1,2,3-triazole-4-carboxamide]
1 to 10 | O=C(NCc1cc(=O)[nH]c2ccc(Br)cc12)c1cnn(Cc2cn3cc(C4CC4)ccc3n2)c1 [Example I-122, N-((6-bromo-2-oxo-1,2-dihydroquinolin-4-yl)methyl)-1-((6-cyclopropylimidazo[1,2-a]pyridin-2-yl)methyl)-1H-pyrazole-4-carboxamide]
> 7100 | O=C(NCc1cc2ccc(Cl)cc2s1)c1cn(Cc2cn3cc(C4CC4)ccc3n2)nn1 [Example I-77, N-((6-chlorobenzo[b]thiophen-2-yl)methyl)-1-((6-cyclopropylimidazo[1,2-a]pyridin-2-yl)methyl)-1H-1,2,3-triazole-4-carboxamide]
≤ 1 | O=C(NCc1c(-n2cnnn2)ccc(Cl)c1F)c1cn(Cc2cn3cc(C4CC4)ccc3n2)nn1 [Example I-106, N-(3-chloro-2-fluoro-6-(1H-tetrazol-1-yl)benzyl)-1-((6-cyclopropylimidazo[1,2-a]pyridin-2-yl)methyl)-1H-1,2,3-triazole-4-carboxamide]
1 to 10 | COc1ccc(S(=O)(=O)N2CCOCC2)c(CNC(=O)c2cn(Cc3cn4cc(C5CC5)ccc4n3)nn2)c1F [Example I-48, 1-((6-cyclopropylimidazo[1,2-a]pyridin-2-yl)methyl)-N-(2-fluoro-3-methoxy-6-(morpholinosulfonyl)benzyl)-1H-1,2,3-triazole-4-carboxamide]
1 to 10 | COc1ccc(-n2cccn2)c(CNC(=O)c2cn(Cc3cn4cc(C5CC5)ccc4n3)nn2)c1F [Example I-95, 1-((6-cyclopropylimidazo[1,2-a]pyridin-2-yl)methyl)-N-(2-fluoro-3-methoxy-6-(1H-pyrazol-1-yl)benzyl)-1H-1,2,3-triazole-4-carboxamide]
1 to 10 | COc1ccc(-n2ccc(C(F)(F)F)n2)c(CNC(=O)c2cn(Cc3cn4cc(C5CC5)ccc4n3)nn2)c1F [Example I-62, 1-((6-cyclopropylimidazo[1,2-a]pyridin-2-yl)methyl)-N-(2-fluoro-3-methoxy-6-(3-(trifluoromethyl)-1H-pyrazol-1-yl)benzyl)-1H-1,2,3-triazole-4-carboxamide]
10 to 100 | O=C(NCc1c(-n2cnnn2)ccc(C2CC2)c1F)c1cn(Cc2cn3cc(C4CC4)ccc3n2)nn1 [Example I-78, N-(3-cyclopropyl-2-fluoro-6-(1H-tetrazol-1-yl)benzyl)-1-((6-cyclopropylimidazo[1,2-a]pyridin-2-yl)methyl)-1H-1,2,3-triazole-4-carboxamide]
≤ 1 | COc1ccc(-n2cnnn2)c(CNC(=O)c2cn(Cc3cn4cc(C5CC5)cc(-n5cnnc5)c4n3)nn2)c1F [Example I-71, 1-((6-cyclopropyl-8-(4H-1,2,4-triazol-4-yl)imidazo[1,2-a]pyridin-2-yl)methyl)-N-(2-fluoro-3-methoxy-6-(1H-tetrazol-1-yl)benzyl)-1H-1,2,3-triazole-4-carboxamide]
2000 to 7100 | O=C(NCc1cc(Cl)ccn1)c1cn(Cc2cn3cc(C4CC4)ccc3n2)nn1 [Example I-142, N-((4-chloropyridin-2-yl)methyl)-1-((6-cyclopropylimidazo[1,2-a]pyridin-2-yl)methyl)-1H-1,2,3-triazole-4-carboxamide]
100 to 2000 | COc1ccc(-c2cc3ccccn3n2)c(CNC(=O)c2cn(Cc3cn4cc(C5CC5)ccc4n3)nn2)c1F [Example I-63, 1-((6-cyclopropylimidazo[1,2-a]pyridin-2-yl)methyl)-N-(2-fluoro-3-methoxy-6-(pyrazolo[1,5-a]pyridin-2-yl)benzyl)-1H-1,2,3-triazole-4-carboxamide]
100 to 2000 | O=C(NCc1nccc2ccc(Cl)cc12)c1cnn(Cc2cn3cc(C4CC4)ccc3n2)c1 [Example I-131, N-((7-chloroisoquinolin-1-yl)methyl)-1-((6-cyclopropylimidazo[1,2-a]pyridin-2-yl)methyl)-1H-pyrazole-4-carboxamide]
1 to 10 | COc1ccc(-n2cnnc2)c(CNC(=O)c2cn(Cc3cn4cc(C5CC5)ccc4n3)nn2)c1F [Example I-96, 1-((6-cyclopropylimidazo[1,2-a]pyridin-2-yl)methyl)-N-(2-fluoro-3-methoxy-6-(4H-1,2,4-triazol-4-yl)benzyl)-1H-1,2,3-triazole-4-carboxamide]
1 to 10 | COc1ccc(-c2cnc(C(=O)O)nc2)c(CNC(=O)c2cn(Cc3cn4cc(C5CC5)ccc4n3)nn2)c1F [Example I-74, 5-(2-((1-((6-cyclopropylimidazo[1,2-a]pyridin-2-yl)methyl)-1H-1,2,3-triazole-4-carboxamido)methyl)-3-fluoro-4-methoxyphenyl)pyrimidine-2-carboxylic Acid]
≤ 1 | COc1ccnc(CNC(=O)c2cn(Cc3cn4cc(C5CC5)cc(N5CCN(C)CC5)c4n3)nn2)c1F [Example I-139, 1-((6-cyclopropyl-8-(4-methylpiperazin-1-yl)imidazo[1,2-a]pyridin-2-yl)methyl)-N-((3-fluoro-4-methoxypyridin-2-yl)methyl)-1H-1,2,3-triazole-4-carboxamide]
1 to 10 | COc1ccc(-n2cnnn2)c(C(C)NC(=O)c2cn(Cc3cn4cc(C5CC5)ccc4n3)nn2)c1F (stereo not drawn) [Example I-31, 1-((6-cyclopropylimidazo[1,2-a]pyridin-2-yl)methyl)-N-(1-(2-fluoro-3-methoxy-6-(1H-tetrazol-1-yl)phenyl)ethyl)-1H-1,2,3-triazole-4-carboxamide]
2000 to 7100 | O=C(NCc1cccc2ccc(Cl)cc12)c1cnn(Cc2cn3cc(C4CC4)ccc3n2)c1 [Example I-130, N-((7-chloronaphthalen-1-yl)methyl)-1-((6-cyclopropylimidazo[1,2-a]pyridin-2-yl)methyl)-1H-pyrazole-4-carboxamide]
2000 to 7100 | Nc1nnc(CNC(=O)c2cn(Cc3cn4cc(C5CC5)ccc4n3)nn2)[nH]1 [Example I-21, N-((5-amino-4H-1,2,4-triazol-3-yl)methyl)-1-((6-cyclopropylimidazo[1,2-a]pyridin-2-yl)methyl)-1H-1,2,3-triazole-4-carboxamide]
100 to 2000 | Cc1cc(N)nc(C)c1CNS(=O)(=O)c1cnn(Cc2cn3cc(C4CC4)ccc3n2)c1 [Example I-46, N-((6-amino-2,4-dimethylpyridin-3-yl)methyl)-1-((6-cyclopropylimidazo[1,2-a]pyridin-2-yl)methyl)-1H-pyrazole-4-sulfonamide]
1 to 10 | CN1CCN(c2cc(C3CC3)cn3cc(Cn4cc(C(=O)NCc5nccc(OC(F)F)c5F)nn4)nc23)CC1 [Example I-153]
100 to 2000 | O=C(NCc1csc2ccc(Cl)cc12)c1cnn(Cc2cn3cc(C4CC4)ccc3n2)c1 [Example I-128, N-((5-chlorobenzo[b]thiophen-3-yl)methyl)-1-((6-cyclopropylimidazo[1,2-a]pyridin-2-yl)methyl)-1H-pyrazole-4-carboxamide]
≤ 1 | O=C(NCc1c(-n2cnnn2)ccc(Br)c1F)c1cn(Cc2cn3cc(C4CC4)ccc3n2)nn1 [Example I-90, N-(3-bromo-2-fluoro-6-(1H-tetrazol-1-yl)benzyl)-1-((6-cyclopropylimidazo[1,2-a]pyridin-2-yl)methyl)-1H-1,2,3-triazole-4-carboxamide]
≤ 1 | CCOC(=O)CCc1cc(C2CC2)cn2cc(Cn3cc(C(=O)NCc4c(-n5cnnn5)ccc(OC)c4F)nn3)nc12 [Example I-89, ethyl 3-(6-cyclopropyl-2-((4-((2-fluoro-3-methoxy-6-(1H-tetrazol-1-yl)benzyl)carbamoyl)-1H-1,2,3-triazol-1-yl)methyl)imidazo[1,2-a]pyridin-8-yl)propanoate]
